This note sets out measurements from PubChem BioAssay (NCI).

Test systems include SK-MEL-2 melanoma; SN12C renal; U251 CNS; NCI/ADR-RES ovarian; IGROV1 ovarian; HCT-116 colon; EKVX NSCLC; 786-0 renal; NCI-H23 lung; MDA-MB-435; CCRF-CEM leukemia.
Assay in all cases: inhibition of tumour cell growth, NCI panel, 48 h

SMILES strings stand for the structures.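 Grown in 96-well plates, cells were treated for 48 hours with each compound at five concentrations. Insufficient inhibition: endpoint recorded as highest concentration tested. GI50 is the concentration that inhibits growth by half. TGI: total growth inhibition.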

Turning to `CCOC(=O)Nc1n[nH]nc1Cl`, the TGI in the assay with SK-MEL-2 melanoma, with SN12C renal, with U251 CNS, with NCI/ADR-RES ovarian, in the assay on IGROV1 ovarian and with HCT-116 colon was over 100 µM throughout. In addition, the TGI with EKVX NSCLC, in the assay on 786-0 renal, in the assay with NCI-H23 lung and in the assay on MDA-MB-435 was over 100 µM throughout.
As for `O=C1Nc2ccccc2/C1=C\c1c(-c2ccccc2)nc2n1CCS2`, the TGI in the assay on SK-MEL-2 melanoma was 28.5 µM; with SN12C renal, 58.5 µM; in the assay with U251 CNS it was 45.3 µM; in the assay with NCI/ADR-RES ovarian, 68.1 µM; in the assay with IGROV1 ovarian, over 100 µM; in the assay on CCRF-CEM leukemia it was over 100 µM. For the same molecule, the TGI in the assay on HCT-116 colon amounted to 49.2 µM; with EKVX NSCLC, 52 µM; in the assay on 786-0 renal, 45.5 µM; with NCI-H23 lung, 66.3 µM; in the assay on MDA-MB-435 it was 39.8 µM.
As to `NC(Cc1ccccc1)c1nn[nH]n1` (stereo not drawn), the TGI in the assay on SK-MEL-2 melanoma, in the assay with SN12C renal, in the assay with U251 CNS, in the assay on NCI/ADR-RES ovarian, in the assay with IGROV1 ovarian and in the assay on CCRF-CEM leukemia was over 100 µM in each case. The TGI in the assay with HCT-116 colon, in the assay on EKVX NSCLC, with 786-0 renal, in the assay on NCI-H23 lung and in the assay with MDA-MB-435 was over 100 µM throughout.
`Fc1cccc(C2SCc3nc4cc5ccccc5cc4n32)c1` (stereo not drawn): the TGI in the assay on SK-MEL-2 melanoma, in the assay with SN12C renal, with U251 CNS, with NCI/ADR-RES ovarian, in the assay with IGROV1 ovarian and with CCRF-CEM leukemia was over 100 µM each time. Also, the TGI with HCT-116 colon, in the assay with EKVX NSCLC, in the assay on 786-0 renal, with NCI-H23 lung and in the assay with MDA-MB-435 was over 100 µM each time.
With `CCCCCCCCCCCCCCCC(=O)Nc1ccn(C2CCC(COP(=O)(O)OCC3OC(n4cc(F)c(=O)[nH]c4=O)CC3OC(C)=O)O2)c(=O)n1` (stereo not drawn), the TGI is 47.6 µM with SK-MEL-2 melanoma; over 73.7 µM with SN12C renal; 36.3 µM with U251 CNS; over 100 µM in the assay with NCI/ADR-RES ovarian; over 100 µM with IGROV1 ovarian; 19.7 µM in the assay on CCRF-CEM leukemia. The TGI was 34.1 µM with HCT-116 colon; over 100 µM in the assay on EKVX NSCLC; over 100 µM with 786-0 renal; 47.9 µM with NCI-H23 lung; 44.2 µM in the assay on MDA-MB-435.
On to `CCCCCCCC(CC(=O)NC(CO)C(=O)NC(CO)CC(C)C)OC(=O)CC(CCCCCCC)OC(=O)CC(CCCCCCC)OC1OC(C)C(O)C(OC2OC(C)C(O)C(O)C2O)C1O` (stereo not drawn), for which the TGI in the assay with SK-MEL-2 melanoma is 13.3 µM; in the assay with SN12C renal it was 28.7 µM; in the assay on U251 CNS, 24.7 µM; in the assay on NCI/ADR-RES ovarian, 33.7 µM; with IGROV1 ovarian, 26.4 µM; in the assay on CCRF-CEM leukemia, 15 µM. For the same molecule, the TGI in the assay on HCT-116 colon was 20.8 µM; in the assay with EKVX NSCLC, 41.8 µM; with 786-0 renal it was 35 µM; with NCI-H23 lung, 30 µM; in the assay with MDA-MB-435, 19.5 µM.
On to `CC(Cc1cccc2c1Nc1ccccc1S2)N(C)CCO` (stereo not drawn), for which the TGI in the assay with SN12C renal, in the assay with U251 CNS, in the assay on NCI/ADR-RES ovarian, in the assay on IGROV1 ovarian, with CCRF-CEM leukemia and in the assay with HCT-116 colon was over 100 µM in each case. The TGI in the assay on EKVX NSCLC, in the assay on 786-0 renal, with NCI-H23 lung and with MDA-MB-435 was over 100 µM throughout.
Consider `C(=N\NC1=NCCN1)/c1cccc2cc3ccncc3nc12`, for which the TGI with SN12C renal is 14.9 µM; in the assay on U251 CNS, 4 µM; in the assay on NCI/ADR-RES ovarian, 25.2 µM; with IGROV1 ovarian, 15.8 µM; with CCRF-CEM leukemia, 3.8 µM; in the assay with HCT-116 colon it was 3.19 µM. The TGI with EKVX NSCLC stood at 14.9 µM; in the assay on 786-0 renal it was 4.51 µM; with NCI-H23 lung, 25.5 µM; with MDA-MB-435, 10.5 µM.
Turning to `COc1cc(/C=C/C(=O)c2ccc(F)cc2)ccc1OCCCCCOc1cc2c(cc1OC)C(=O)N1CCCC1C=N2` (stereo not drawn), the GI50 in the assay with SK-MEL-2 melanoma was 0.062 µM; in the assay on SN12C renal, 0.0335 µM; with NCI/ADR-RES ovarian it was 0.239 µM; in the assay on IGROV1 ovarian, 0.0646 µM; with CCRF-CEM leukemia it was under 0.01 µM; in the assay with EKVX NSCLC, 0.151 µM. The values for the GI50 in the assay on NCI-H23 lung and in the assay on MDA-MB-435 were 0.0186 µM and 0.0339 µM, respectively. For the same molecule, the TGI with SK-MEL-2 melanoma was determined as 1.51 µM; in the assay with SN12C renal, 2.37 µM; in the assay with NCI/ADR-RES ovarian it was 2.47 µM; in the assay on IGROV1 ovarian, 11.3 µM; in the assay with CCRF-CEM leukemia, 0.0258 µM; in the assay with EKVX NSCLC, 0.601 µM. In addition, the TGI worked out at 0.0662 µM with NCI-H23 lung and 0.145 µM in the assay with MDA-MB-435.
In the case of `O=c1oc2ccc3ccccc3c2cc1-c1cn2c(n1)sc1ccccc12`, the TGI with SK-MEL-2 melanoma, in the assay on U251 CNS, with NCI/ADR-RES ovarian, in the assay with IGROV1 ovarian, with CCRF-CEM leukemia and in the assay with HCT-116 colon was over 100 µM each time. Further, the TGI in the assay on EKVX NSCLC, with 786-0 renal, with NCI-H23 lung and in the assay with MDA-MB-435 was over 100 µM throughout.
For `C#C[C@]1(O)[C@@H](CO)O[C@@H](n2ccc(N)nc2=O)[C@@H]1O`, the TGI is 0.617 µM in the assay with SK-MEL-2 melanoma; over 38.1 µM in the assay on IGROV1 ovarian; 4.27 µM in the assay on CCRF-CEM leukemia; over 33.9 µM in the assay on HCT-116 colon; over 19.9 µM in the assay on EKVX NSCLC; 1.78 µM in the assay with NCI-H23 lung. In the assay on MDA-MB-435, this molecule gave a TGI of 0.219 µM.
As to `CCc1ccc(Nc2cc(=O)n(C)c(SCc3ccccc3)n2)cc1`, the TGI with SK-MEL-2 melanoma is over 100 µM; in the assay on SN12C renal it was 42.8 µM; in the assay with NCI/ADR-RES ovarian, over 100 µM; in the assay on IGROV1 ovarian, over 100 µM; in the assay with CCRF-CEM leukemia, over 100 µM; in the assay with HCT-116 colon, 57.1 µM. Also, the TGI was over 100 µM in the assay with EKVX NSCLC, 34.4 µM with 786-0 renal, over 100 µM in the assay on NCI-H23 lung and over 100 µM in the assay on MDA-MB-435.
